Laboratory results taken from patent US4070469A, “Compound for the treatment of bovine mastitis” (priority 1975, dated 1978).
In brackets after ≈: the same amount, converted by molar mass. Like-named read-outs stand apart in the source and are kept apart here.

Tests used:
Staph.Aureus = assay: Minimal bactericidal activity (MBC) in milk, field isolates; assay type: cell-based; conditions: Staphylococcus aureus, in milk at pH 7.2 - 7.4
Excerpt: (§1) The activity of some of said nitrofuryl quinolines derivatives against Strep.uberis and Stap.Aureus in milk has been compared with the activity of some of the compounds so far utilised in the treatment of bovine mastitis. The results are shown in Table I. (The nitrofuryl quinoline derivatives have general formula [drawing 1] the meaning of R, A, R', B, Y, X and Z being given in the Table. R1 =O whenever indicated then the N-oxide is concerned; NF stands for nitrofuryl)
(§2) Minimal Bactericidal/Activity (MBC) of representative Nitrofuryl
(§3) in mcg/ml in milk at pH 7.2 - 7.4. Versus Standards (Field

Strep.uberis = assay: as above; assay type: cell-based; conditions: Streptococcus uberis, in milk at pH 7.2 - 7.4
Excerpt: as §1, §2, §3

[1] = field isolate 2337, read-out: Minimal Bactericidal Activity (MBC), Staph.Aureus 2337
[2] = field isolate 2372, read-out: Minimal Bactericidal Activity (MBC), Staph.Aureus 2372
[3] = field isolate 60B, read-out: Minimal Bactericidal Activity (MBC), Strep.uberis 60B
[4] = field isolate 127A, read-out: Minimal Bactericidal Activity (MBC), Strep.uberis 127A

| Structure (SMILES) | MBC (Staph.Aureus; [1]) | MBC (Staph.Aureus; [2]) | MBC (Strep.uberis; [3]) | MBC (Strep.uberis; [4]) |
| --- | --- | --- | --- | --- |
| O=C(N[C@H](CO)[C@H](O)c1ccc([N+](=O)[O-])cc1)C(Cl)Cl [Chloramphenicol, reference compound] | > 50 µg/mL | > 50 µg/mL | 50 µg/mL (≈ 155 µM) | > 400 µg/mL |
| O=C(O)c1cc(-c2ccc([N+](=O)[O-])o2)c2ccccc2n1 [Compound 2, 4-(5-nitrofuryl)-quinaldinic acid] | 1 µg/mL (≈ 3.52 µM) | 0.5 µg/mL (≈ 1.76 µM) | 0.12 µg/mL (≈ 0.422 µM) | 1 µg/mL (≈ 3.52 µM) |
| O=[N+]([O-])c1ccc(-c2ccc3ccccc3n2)o1 [Compound 3] | > 10 µg/mL | > 10 µg/mL | > 10 µg/mL | > 10 µg/mL |
| Cc1cc(-c2ccc([N+](=O)[O-])o2)[n+]([O-])c2ccccc12 [Compound 4] | 10 µg/mL (≈ 37 µM) | > 10 µg/mL | > 10 µg/mL | > 10 µg/mL |
| Cc1cc(-c2ccc([N+](=O)[O-])o2)c2ccccc2n1 [Compound 5] | > 10 µg/mL | > 10 µg/mL | 10 µg/mL (≈ 39.3 µM) | 10 µg/mL (≈ 39.3 µM) |
| Cc1cc(-c2ccc([N+](=O)[O-])o2)c2ccccc2[n+]1[O-] [Compound 6] | 5 µg/mL (≈ 18.5 µM) | 5 µg/mL (≈ 18.5 µM) | 5 µg/mL (≈ 18.5 µM) | 5 µg/mL (≈ 18.5 µM) |
| CCc1ccc2nc(C)cc(-c3ccc([N+](=O)[O-])o3)c2c1 [Compound 7] | > 10 µg/mL | > 10 µg/mL | > 10 µg/mL | > 10 µg/mL |
| CC(=O)Oc1ccc2c(-c3ccc([N+](=O)[O-])o3)cc(C)nc2c1 [Compound 8] | 5 µg/mL (≈ 16 µM) | 5 µg/mL (≈ 16 µM) | 0.25 µg/mL (≈ 0.801 µM) | 10 µg/mL (≈ 32 µM) |
| COc1ccc2c(-c3ccc([N+](=O)[O-])o3)cc(C)nc2c1 [Compound 9] | 5 µg/mL (≈ 17.6 µM) | 5 µg/mL (≈ 17.6 µM) | 10 µg/mL (≈ 35.2 µM) | 5 µg/mL (≈ 17.6 µM) |
| CCc1cccc2c(-c3ccc([N+](=O)[O-])o3)cc(C)nc12 [Compound 10] | > 10 µg/mL | > 10 µg/mL | > 10 µg/mL | > 10 µg/mL |
| O=[N+]([O-])c1ccc(-c2ccnc3ccccc23)o1 [Compound 11] | > 10 µg/mL | > 10 µg/mL | 10 µg/mL (≈ 41.6 µM) | > 10 µg/mL |
| CCc1cc(-c2ccc([N+](=O)[O-])o2)c2cc(C)ccc2n1 [Compound 12] | > 10 µg/mL | > 10 µg/mL | > 10 µg/mL | > 10 µg/mL |
| O=[N+]([O-])c1ccc(-c2cc(CO)nc3ccccc23)o1 [Compound 13] | 10 µg/mL (≈ 37 µM) | 5 µg/mL (≈ 18.5 µM) | 5 µg/mL (≈ 18.5 µM) | > 10 µg/mL |
| O=[N+]([O-])c1ccc(-c2cc(C(Br)(Br)Br)nc3ccccc23)o1 [Compound 14] | 10 µg/mL (≈ 20.4 µM) | > 10 µg/mL | 5 µg/mL (≈ 10.2 µM) | 5 µg/mL (≈ 10.2 µM) |
| O=[N+]([O-])c1ccc(-c2cc(C=NO)nc3ccccc23)o1 [Compound 15] | 1 µg/mL (≈ 3.53 µM) | 1 µg/mL (≈ 3.53 µM) | 1 µg/mL (≈ 3.53 µM) | 1 µg/mL (≈ 3.53 µM) |
| CCOc1ccc2c(-c3ccc([N+](=O)[O-])o3)cc(C(=O)O)nc2c1 [Compound 17] | 1 µg/mL (≈ 3.05 µM) | 0.5 µg/mL (≈ 1.52 µM) | 0.03 µg/mL (≈ 0.0914 µM) | 1 µg/mL (≈ 3.05 µM) |
| O=C(c1cc(-c2ccc([N+](=O)[O-])o2)c2ccccc2n1)N1CCOCC1 [Compound 18] | > 10 µg/mL | 10 µg/mL (≈ 28.3 µM) | 5 µg/mL (≈ 14.2 µM) | > 10 µg/mL |
| CCc1ccc2c(c1)c(-c1ccc([N+](=O)[O-])o1)cc(C)[n+]2[O-] [Compound 20] | 5 µg/mL (≈ 16.8 µM) | 5 µg/mL (≈ 16.8 µM) | > 10 µg/mL | > 10 µg/mL |
| Cc1ccc2c(-c3ccc([N+](=O)[O-])o3)cc(C)[n+]([O-])c2c1 [Compound 21] | 5 µg/mL (≈ 17.6 µM) | 10 µg/mL (≈ 35.2 µM) | 5 µg/mL (≈ 17.6 µM) | 10 µg/mL (≈ 35.2 µM) |
| COc1ccc2c(-c3ccc([N+](=O)[O-])o3)cc(C)[n+]([O-])c2c1 [Compound 23] | 5 µg/mL (≈ 16.7 µM) | 5 µg/mL (≈ 16.7 µM) | 5 µg/mL (≈ 16.7 µM) | 5 µg/mL (≈ 16.7 µM) |
| CCc1cc(-c2ccc([N+](=O)[O-])o2)c2ccc(OC)cc2[n+]1[O-] [Compound 24] | > 10 µg/mL | 10 µg/mL (≈ 31.8 µM) | > 10 µg/mL | > 10 µg/mL |
| COc1ccc2c(-c3ccc([N+](=O)[O-])o3)cc(C(=O)O)[n+]([O-])c2c1 [Compound 25] | 1 µg/mL (≈ 3.03 µM) | 5 µg/mL (≈ 15.1 µM) | 0.25 µg/mL (≈ 0.757 µM) | 0.5 µg/mL (≈ 1.51 µM) |
